Among the data in patent publication US20230265151A1, “GIP/GLP1 CO-AGONIST COMPOUNDS” (priority 2020, published 2023) are Emax and EC50 values, retold here.

In one assay the target is T1, hGIPR (Homo sapiens, UniProt P48546).
T1 construct: expressed in transfected cells
T1 sequence (P48546 22-466): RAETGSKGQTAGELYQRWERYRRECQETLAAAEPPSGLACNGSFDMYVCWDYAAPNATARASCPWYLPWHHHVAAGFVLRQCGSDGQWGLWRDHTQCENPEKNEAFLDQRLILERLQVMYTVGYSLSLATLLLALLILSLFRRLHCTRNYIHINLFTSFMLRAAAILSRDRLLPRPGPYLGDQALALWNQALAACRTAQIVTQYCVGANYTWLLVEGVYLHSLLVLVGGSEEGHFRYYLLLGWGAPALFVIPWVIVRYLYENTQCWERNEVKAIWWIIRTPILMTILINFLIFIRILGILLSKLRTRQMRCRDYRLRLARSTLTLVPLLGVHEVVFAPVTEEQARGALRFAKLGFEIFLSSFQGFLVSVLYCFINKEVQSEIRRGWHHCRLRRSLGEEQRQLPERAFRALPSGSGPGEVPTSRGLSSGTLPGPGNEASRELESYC
The assay can be described thus: Functional cAMP formation (HTRF) in HEK-293 clonal cells expressing hGIPR, 0.1% bovine casein, without or with 1.0% human serum albumin. The format is cell-based. As to conditions: for EC50: geometric mean. The procedure:
(§1) After a 30-min incubation at 37° C., the resulting increase in intracellular cAMP is quantitatively determined using a CisBio cAMP Dynamic 2 HTRF Assay Kit (62AM4PEJ). Briefly, cAMP levels within the cell are detected by adding the cAMP-d2 conjugate in cell lysis buffer (10 µL) followed by the antibody anti-cAMP-Eu^3+-Cryptate, also in cell lysis buffer (10 µL). The resulting competitive assay is incubated for at least 60 min at room temperature, and then is detected using a PerkinElmer Envision® instrument with excitation at 320 nm and emission at 665 nm and 620 nm. Envision units (emission at 665 nm/620 nm* 10,000) are inversely proportional to the amount of cAMP present and are converted to nM cAMP per well us-ing a cAMP standard curve. […] A relative EC50 value and percent top (Emax) are derived by non-linear regression analysis using the percent maximal response vs. the concentration of peptide added, fitted to a four-parameter logistic equation.
On the technique in general: Cyclic AMP is a second messenger, typically raised through Gs and lowered through Gi signalling.

The target in a further assay is T2, hGCGR (Homo sapiens, UniProt P47871).
T2 construct: expressed in transfected cells
The experiment in a line: Functional cAMP formation (HTRF) in HEK-293 clonal cells expressing hGCGR, 0.1% bovine casein, without or with 1.0% human serum albumin. The format is cell-based. Conditions: geometric mean. The procedure: as §1

Setting [1] is: HEK293, percent of maximal response to GIP(1-42)NH2, 37° C., 0.1% bovine casein, arithmetic mean, read-out: hGIPR Emax, % ± SEM.
Where [2] appears, read: cAMP, incubated at 37° C., 0.1% bovine casein (no human serum albumin), read-out: hGIPR EC50, nM (SEM, n).
Where [3] appears, read: cAMP, incubated at 37° C., 0.1% bovine casein (no human serum albumin), read-out: hGCGR EC50, nM (SEM, n).
[4] abbreviates: HEK293, 0.1% bovine casein and 1.0% human serum albumin, 37° C., percent of maximal response to GIP(1-42)NH2, read-out: hGIPR Emax, % ± SEM.
Where [5] appears, read: 0.1% bovine casein and 1.0% human serum albumin, 37° C., read-out: hGCGR EC50, nM (SEM, n).

As usually defined, the Emax is the size of the effect at its maximum, as opposed to the concentration needed. For orientation: EC50 means the concentration that produces a half-maximal response.

Molecules are shown by their SMILES. Like-named read-outs stand apart in the source and are kept apart here. Bounds are passed on as bounds.

T2 sequence (P47871 26-477): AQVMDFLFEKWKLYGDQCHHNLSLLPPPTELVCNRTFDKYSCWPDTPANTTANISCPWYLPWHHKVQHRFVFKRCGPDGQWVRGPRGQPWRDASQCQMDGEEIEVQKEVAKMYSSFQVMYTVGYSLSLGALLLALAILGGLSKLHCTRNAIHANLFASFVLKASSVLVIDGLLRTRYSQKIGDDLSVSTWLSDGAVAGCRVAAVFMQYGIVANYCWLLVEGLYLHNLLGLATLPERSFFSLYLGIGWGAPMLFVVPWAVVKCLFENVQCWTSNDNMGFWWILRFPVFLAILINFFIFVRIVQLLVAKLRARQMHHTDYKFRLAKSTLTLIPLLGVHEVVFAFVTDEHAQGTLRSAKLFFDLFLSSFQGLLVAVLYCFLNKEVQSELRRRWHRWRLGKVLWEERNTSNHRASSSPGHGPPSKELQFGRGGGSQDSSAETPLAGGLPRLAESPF

For the compound `CC[C@H](C)[C@H](NC(=O)[C@H](CCCN)NC(=O)[C@H](CC(=O)O)NC(=O)[C@H](CC(C)C)NC(=O)[C@](C)(CC(C)C)NC(=O)[C@@H](NC(=O)[C@H](CO)NC(=O)[C@H](CCCCNC(=O)COCCOCCNC(=O)COCCOCCNC(=O)CC[C@H](NC(=O)CCCCCCCCCCCCC(=O)O)C(=O)O)NC(=O)[C@H](CC(=O)O)NC(=O)[C@H](CO)NC(=O)[C@@H](NC(=O)[C@](C)(Cc1ccccc1F)NC(=O)[C@@H](NC(=O)CNC(=O)[C@H](CCC(=O)O)NC(=O)C(C)(C)NC(=O)[C@@H](N)Cc1ccc(O)cc1)[C@@H](C)O)[C@@H](C)O)[C@@H](C)CC)C(=O)N[C@@H](C)C(=O)N[C@@H](CCC(N)=O)C(=O)NC(C)(C)C(=O)N[C@@H](CCCCNC(=O)COCCOCCNC(=O)COCCOCCNC(=O)CC[C@H](NC(=O)CCCCCCCCCCCCC(=O)O)C(=O)O)C(=O)N[C@@](C)(Cc1ccccc1)C(=O)N[C@H](C(=O)N[C@H](CCC(=O)O)C(=O)N[C@@](C)(Cc1ccc(O)cc1)C(=O)N[C@@H](CC(C)C)C(=O)N[C@H](C(=O)N[C@@H](CCC(=O)O)C(=O)NCC(=O)NCC(=O)N1CCC[C@H]1C(=O)N[C@@H](CO)C(=O)N[C@@H](CO)C(=O)NCC(=O)N[C@@H](C)C(=O)N1CCC[C@H]1C(=O)N1CCC[C@H]1C(=O)N1CCC[C@H]1C(=O)N[C@@H](CO)C(N)=O)[C@@H](C)CC)[C@@H](C)CC` [Example 109], at hGIPR (setting [1]), the maximal effect (Emax) came to 84.8%. The EC50 on hGIPR (setting [2]) is 0.0236 nM; at hGCGR (setting [3]), over 9950 nM.
With `CC[C@H](C)[C@H](NC(=O)[C@H](CC(C)C)NC(=O)[C@](C)(Cc1ccccc1)NC(=O)[C@H](CCCCNC(=O)COCCOCCNC(=O)COCCOCCNC(=O)CC[C@H](NC(=O)CCCCCCCCCCCCC(=O)O)C(=O)O)NC(=O)[C@@H](NC(=O)[C@H](Cc1ccccc1)NC(=O)[C@H](CCC(=O)O)NC(=O)C(C)(C)NC(=O)[C@H](CCC(N)=O)NC(=O)[C@H](C)NC(=O)[C@H](CCCCNC(=O)COCCOCCNC(=O)COCCOCCNC(=O)CC[C@H](NC(=O)CCCCCCCCCCCCC(=O)O)C(=O)O)NC(=O)[C@H](CCCN)NC(=O)[C@H](CC(=O)O)NC(=O)[C@H](CC(C)C)NC(=O)[C@](C)(CC(C)C)NC(=O)[C@@H](NC(=O)[C@H](CO)NC(=O)[C@H](Cc1ccncc1)NC(=O)[C@H](CC(=O)O)NC(=O)[C@H](CO)NC(=O)[C@@H](NC(=O)[C@](C)(Cc1ccccc1F)NC(=O)[C@@H](NC(=O)CNC(=O)[C@H](CCC(=O)O)NC(=O)C(C)(C)NC(=O)[C@@H](N)Cc1ccc(O)cc1)[C@@H](C)O)[C@@H](C)O)[C@@H](C)CC)[C@@H](C)CC)C(=O)N[C@@H](CCC(=O)O)C(=O)NCC(=O)NCC(=O)N1CCC[C@H]1C(=O)N[C@@H](CO)C(=O)N[C@@H](CO)C(=O)NCC(=O)N[C@@H](C)C(=O)N1CCC[C@H]1C(=O)N1CCC[C@H]1C(=O)N1CCC[C@H]1C(=O)N[C@@H](CO)C(N)=O` [Example 83], the maximum response (Emax) on hGIPR (HEK293, read-out: hGIPR Emax, % ± SEM, percent of maximal response to GIP(1-42)NH2, 37° C., 0.1% bovine casein, arithmetic mean) was determined as 89.6 ± 7.35%. Moreover, the EC50 was 0.0223 nM on hGIPR (hGIPR EC50, nM (SEM, n), cAMP, incubated at 37° C., 0.1% bovine casein (no human serum albumin)) and over 9950 nM on hGCGR (hGCGR EC50, nM (SEM, n), cAMP, incubated at 37° C., 0.1% bovine casein (no human serum albumin)).
Consider `CC[C@H](C)[C@H](NC(=O)[C@H](CC(C)C)NC(=O)[C@](C)(Cc1ccc(O)cc1)NC(=O)[C@@H](CCC(=O)O)NC(=O)[C@@H](NC(=O)[C@H](Cc1ccccc1)NC(=O)[C@H](CCC(=O)O)NC(=O)C(C)(C)NC(=O)[C@H](CCC(N)=O)NC(=O)[C@H](C)NC(=O)[C@H](CCCCNC(=O)COCCOCCNC(=O)COCCOCCNC(=O)CC[C@H](NC(=O)CCCCCCCCCCCCC(=O)O)C(=O)O)NC(=O)[C@H](CCCN)NC(=O)[C@H](CC(=O)O)NC(=O)[C@H](CC(C)C)NC(=O)[C@](C)(CC(C)C)NC(=O)[C@@H](NC(=O)[C@H](CO)NC(=O)[C@@H](NC(=O)[C@H](CC(=O)O)NC(=O)[C@H](CO)NC(=O)[C@@H](NC(=O)[C@](C)(Cc1ccccc1F)NC(=O)[C@@H](NC(=O)CNC(=O)[C@H](CCC(=O)O)NC(=O)C(C)(C)NC(=O)[C@@H](N)Cc1ccc(O)cc1)[C@@H](C)O)[C@@H](C)O)C1CCCCC1)[C@@H](C)CC)[C@@H](C)CC)C(=O)N[C@@H](CCC(=O)O)C(=O)NCC(=O)NCC(=O)N[C@@H](CCCCNC(=O)COCCOCCNC(=O)COCCOCCNC(=O)CC[C@H](NC(=O)CCCCCCCCCCCCC(=O)O)C(=O)O)C(=O)N[C@@H](CO)C(=O)N[C@@H](CO)C(=O)NCC(=O)N[C@@H](C)C(=O)N1CCC[C@H]1C(=O)N1CCC[C@H]1C(=O)N1CCC[C@H]1C(=O)N[C@@H](CO)C(N)=O` [Example 97], for which the maximal effect (Emax) came out at 93.1% on hGIPR (setting [4]) and 97 ± 1.53% on hGIPR (setting [1]). The 50% effective concentration (EC50) at hGCGR (setting [5]) and at hGCGR (setting [3]) was over 9950 nM each time.
`CC[C@H](C)[C@H](NC(=O)[C@H](CC(C)C)NC(=O)[C@](C)(Cc1ccc(O)cc1)NC(=O)[C@@H](CCC(=O)O)NC(=O)[C@@H](NC(=O)[C@H](Cc1ccccc1)NC(=O)[C@H](CCC(=O)O)NC(=O)C(C)(C)NC(=O)[C@H](CCC(N)=O)NC(=O)[C@H](C)NC(=O)[C@H](CCCCNC(=O)COCCOCCNC(=O)COCCOCCNC(=O)CC[C@H](NC(=O)CCCCCCCCCCCCC(=O)O)C(=O)O)NC(=O)[C@H](CCCN)NC(=O)[C@H](CC(=O)O)NC(=O)[C@H](CC(C)C)NC(=O)[C@](C)(CC(C)C)NC(=O)[C@@H](NC(=O)[C@H](CO)NC(=O)[C@H](Cc1ccco1)NC(=O)[C@H](CC(=O)O)NC(=O)[C@H](CO)NC(=O)[C@@H](NC(=O)[C@](C)(Cc1ccccc1F)NC(=O)[C@@H](NC(=O)CNC(=O)[C@H](CCC(=O)O)NC(=O)C(C)(C)NC(=O)[C@@H](N)Cc1ccc(O)cc1)[C@@H](C)O)[C@@H](C)O)[C@@H](C)CC)[C@@H](C)CC)C(=O)N[C@@H](CCC(=O)O)C(=O)NCC(=O)NCC(=O)N[C@@H](CCCCNC(=O)COCCOCCNC(=O)COCCOCCNC(=O)CC[C@H](NC(=O)CCCCCCCCCCCCC(=O)O)C(=O)O)C(=O)N[C@@H](CO)C(=O)N[C@@H](CO)C(=O)NCC(=O)N[C@@H](C)C(=O)N1CCC[C@H]1C(=O)N1CCC[C@H]1C(=O)N1CCC[C@H]1C(=O)N[C@@H](CO)C(N)=O` [Example 143]: the maximum response (Emax) at hGIPR (setting [1]) stood at 95%. The half-maximal effective concentration (EC50) on hGIPR (setting [2]) was 0.022 nM; on hGCGR (setting [3]) it was over 9950 nM.
`CC[C@H](C)[C@H](NC(=O)[C@H](CC(C)C)NC(=O)[C@](C)(Cc1ccc(O)cc1)NC(=O)[C@@H](CCC(=O)O)NC(=O)[C@@H](NC(=O)[C@H](Cc1ccccc1)NC(=O)[C@H](CCC(=O)O)NC(=O)C(C)(C)NC(=O)[C@H](CCC(N)=O)NC(=O)[C@H](C)NC(=O)[C@H](CCCCNC(=O)COCCOCCNC(=O)COCCOCCNC(=O)CC[C@H](NC(=O)CCCCCCCCCCCCC(=O)O)C(=O)O)NC(=O)[C@H](CCCN)NC(=O)[C@H](CC(=O)O)NC(=O)[C@H](CC(C)C)NC(=O)[C@](C)(CC(C)C)NC(=O)[C@@H](NC(=O)[C@H](CO)NC(=O)[C@H](Cc1ccc(OC)cc1)NC(=O)[C@H](CC(=O)O)NC(=O)[C@H](CO)NC(=O)[C@@H](NC(=O)[C@](C)(Cc1ccccc1F)NC(=O)[C@@H](NC(=O)CNC(=O)[C@H](CCC(=O)O)NC(=O)C(C)(C)NC(=O)[C@@H](N)Cc1ccc(O)cc1)[C@@H](C)O)[C@@H](C)O)[C@@H](C)CC)[C@@H](C)CC)C(=O)N[C@@H](CCCCNC(=O)COCCOCCNC(=O)COCCOCCNC(=O)CC[C@H](NC(=O)CCCCCCCCCCCCC(=O)O)C(=O)O)C(=O)NCC(=O)NCC(=O)N1CCC[C@H]1C(=O)N[C@@H](CO)C(=O)N[C@@H](CO)C(=O)NCC(=O)N[C@@H](C)C(=O)N1CCC[C@H]1C(=O)N1CCC[C@H]1C(=O)N1CCC[C@H]1C(=O)N[C@@H](CO)C(N)=O` [Example 260]: the EC50 at hGIPR (0.1% bovine casein and 1.0% human serum albumin, 37° C., read-out: hGIPR EC50, nM (SEM, n)) was 3.27 nM; at hGIPR (cAMP, 37° C., 0.1% bovine casein (no human serum albumin), read-out: hGIPR EC50, nM (SEM, n)), 0.0239 nM; at hGCGR (setting [5]), over 9950 nM; on hGCGR (cAMP, 37° C., 0.1% bovine casein (no human serum albumin), read-out: hGCGR EC50, nM (SEM, n)), over 9950 nM. The maximal response (Emax) at hGIPR (setting [4]) was 83%; at hGIPR (HEK293, cAMP, 37° C., 0.1% bovine casein, percent of maximal response to GIP(1-42)NH2, arithmetic mean, read-out: hGIPR Emax, % ± SEM), 113%.
